From patent publication US20020061840A1, “Tripeptide compounds useful as selective inhibitors of aminopeptidase A and corresponding pharmaceutical compositions” (priority 2000, published 2002)

The compounds below were run against T1, Aminopeptidase N (Sus scrofa, UniProt P15145) (assay: In vitro inhibiting power on aminopeptidase N (Ala-Na substrate)). Settings: APN purified from pig's kidney, 200 μM Ala-Na, 37° C., Tris HCl pH 7.4.
T1 construct: Aminopeptidase N purified from pig's kidney; purchased Böehringer Mannheim (Meylan, France); host or cells: pig's kidney
T1 sequence (P15145 1-963): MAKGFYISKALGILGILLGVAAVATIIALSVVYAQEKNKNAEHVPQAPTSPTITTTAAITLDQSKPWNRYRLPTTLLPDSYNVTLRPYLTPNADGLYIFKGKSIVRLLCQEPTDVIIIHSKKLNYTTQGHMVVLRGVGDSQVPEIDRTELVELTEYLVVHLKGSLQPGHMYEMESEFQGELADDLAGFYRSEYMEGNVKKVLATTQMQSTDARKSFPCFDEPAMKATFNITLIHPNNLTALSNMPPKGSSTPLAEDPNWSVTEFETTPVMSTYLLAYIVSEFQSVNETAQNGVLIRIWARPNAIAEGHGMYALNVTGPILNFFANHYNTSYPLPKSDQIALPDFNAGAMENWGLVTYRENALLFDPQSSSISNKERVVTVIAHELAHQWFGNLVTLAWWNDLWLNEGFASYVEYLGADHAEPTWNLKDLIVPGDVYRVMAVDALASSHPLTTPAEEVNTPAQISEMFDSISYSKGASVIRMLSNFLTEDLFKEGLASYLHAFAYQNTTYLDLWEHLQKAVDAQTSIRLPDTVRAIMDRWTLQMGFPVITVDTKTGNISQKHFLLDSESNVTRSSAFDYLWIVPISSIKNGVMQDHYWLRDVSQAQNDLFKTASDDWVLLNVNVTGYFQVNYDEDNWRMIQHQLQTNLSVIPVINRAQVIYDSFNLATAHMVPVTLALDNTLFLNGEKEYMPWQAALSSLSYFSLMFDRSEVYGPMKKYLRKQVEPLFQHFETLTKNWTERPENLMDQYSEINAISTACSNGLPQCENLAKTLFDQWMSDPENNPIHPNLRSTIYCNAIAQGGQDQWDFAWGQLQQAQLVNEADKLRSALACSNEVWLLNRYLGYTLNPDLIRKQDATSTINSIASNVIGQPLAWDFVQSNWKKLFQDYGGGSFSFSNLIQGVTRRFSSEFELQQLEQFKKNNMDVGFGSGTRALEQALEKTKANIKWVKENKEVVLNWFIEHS
Format: biochemical
Procedure: b)) In vitro study of the inhibiting power of the synthesised compounds on aminopeptidase N.
1°) Source of the Enzyme.
Aminopeptidase N purified from pig's kidney is marketed by Böehringer Mannheim (Meylan, France).
The APN is incubated for 10 min at 37° C. in the absence or in the presence of increasing concentrations of inhibitors in a total volume of 100 μl in Tris HCl buffer (50 mM, pH =7.4. 200 μM of Ala-Na are added and the whole thing is incubated for 30 min at 37° C. The reaction is stopped by the addition of 10 μl of CH3COO—Na 1M (pH=4.2). The absorption is measured at 400 nm and compared with that of a standard range of 2-naphthyiamine.
`CC[C@H](C)[C@H](NC(=O)[C@@H](S)[C@H](N)CCC(=O)O)C(=O)N1CC[C@@H](C(=O)O)[C@H]1C(=O)O` [Example 3A, [[(2S ,3R)-3-amino-5-carboxy-2-mercapto]pentanoyl]-LIIe-L.(3R)(3-COOH)Pro-OH] gave a Ki of over 5 µM.
`CCC(C)C(NC(=O)C(S)C(N)CCP(=O)(O)O)C(=O)NC(CCC(=O)O)C(=O)O` (single isomer, unassigned) [Example 4B] was tested, and the Ki was over 5 µM.
`CCC(C)C(NC(=O)C(S)C(N)CCS(=O)(=O)O)C(=O)NC(CCC(=O)O)C(N)=O` (single isomer, unassigned) [Example 8B] gave a Ki of over 50 µM.
For `CCC(C)C(NC(=O)C(S)C(N)CCP(=O)(O)O)C(=O)NC(CCC(=O)O)C(=O)O` (single isomer, unassigned) [Example 4A], the Ki was over 5 µM.
Compound `CC[C@H](C)[C@H](NC(=O)[C@H](S)[C@H](N)CCC(=O)O)C(=O)N1CC[C@@H](C(=O)O)[C@H]1C(=O)O` [Example 3B, [[(2R,3R), 3-amino-5-carboxy-2-mercapto]-pentanoyl]-L.IIe-L.(3R)(3-COOH)Pro-OH] has a Ki of over 5 µM.
Work on `CCC(C)C(NC(=O)C(S)C(N)CCS(=O)(=O)O)C(=O)NC(CCC(=O)O)C(N)=O` (single isomer, unassigned) [Example 8A] yielded a Ki of over 50 µM.
